# Test results reported in ChEMBL document CHEMBL6177930, “2-(4-Bromobenzyl) tethered 4-amino aryl/alkyl-5,6,7,8-tetrahydrobenzo[4,5]thieno[2,3-d]pyrimidines: design, synthesis, anticancer assessment via dual topoisomerase-I/II inhibition, and in silico studies” (RSC Med Chem, 2025).
# Activity calls are given as the source filed them. The rule behind the calls is not given here.
# Legend:
# [1] = tested on: MDA-MB-231; test: Antiproliferative activity against human MDA-MB-231 cells assessed as inhibition of cell growth at 10 uM measured after 48 to 72 hrs by MTT assay relative to control; assay type: functional; details: time 48-72 hrs
# [2] = tested on: FaDu; test: Induction of morphological changes in human FaDu cells assessed as appearance of detached cells at 2 to 5 uM incubated for 48 hrs by bright field microscope based analysis; assay type: functional, cell-based; details: dose 2-5 µM
# [3] = tested on: MCF7; test: Induction of cell cycle arrest in human MCF7 cells assessed as accumulation of cells at G0/G1 phase measured after 24 hrs by PI staining based flow cytometry analysis (reference value: 45.2%); assay type: functional
# [4] = target: T1, DNA topoisomerase 1 (Homo sapiens) (UniProt P11387); test: Inhibition of human topoisomerase-I extracted from baculovirus expression system using SC-DNA as substrate incubated for 30 mins by EtBr staining based agarose gel electrophoresis method
# T1 sequence (whole entry): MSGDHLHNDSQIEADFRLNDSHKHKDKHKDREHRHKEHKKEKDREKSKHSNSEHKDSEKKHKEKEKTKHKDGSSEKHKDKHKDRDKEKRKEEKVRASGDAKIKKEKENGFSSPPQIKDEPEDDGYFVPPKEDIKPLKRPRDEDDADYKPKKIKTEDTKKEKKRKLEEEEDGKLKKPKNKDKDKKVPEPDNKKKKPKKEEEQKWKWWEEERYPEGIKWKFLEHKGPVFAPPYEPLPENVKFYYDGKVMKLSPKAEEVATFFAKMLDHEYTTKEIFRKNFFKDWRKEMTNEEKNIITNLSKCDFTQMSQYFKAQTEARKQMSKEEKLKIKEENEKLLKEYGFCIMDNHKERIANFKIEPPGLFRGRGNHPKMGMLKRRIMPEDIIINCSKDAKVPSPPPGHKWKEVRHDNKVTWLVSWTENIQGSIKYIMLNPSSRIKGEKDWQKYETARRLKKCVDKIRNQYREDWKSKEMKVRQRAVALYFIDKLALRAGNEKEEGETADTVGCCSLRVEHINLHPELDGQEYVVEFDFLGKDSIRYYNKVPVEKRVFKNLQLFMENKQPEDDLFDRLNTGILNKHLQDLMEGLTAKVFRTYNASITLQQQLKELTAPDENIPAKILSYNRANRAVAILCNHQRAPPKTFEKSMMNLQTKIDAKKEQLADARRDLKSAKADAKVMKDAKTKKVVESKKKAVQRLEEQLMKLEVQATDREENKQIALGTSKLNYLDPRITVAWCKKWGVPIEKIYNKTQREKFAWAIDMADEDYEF
# [5] = tested on: Mitochondrial membrane; test: Induction of mitochondrial membrane potential loss in human FaDu cells assessed as decrease in green fluorescence incubated for 48 hrs by Rhodamine 123 staining based fluorescence microscopy analysis; assay type: cell membranes; details: dose 1-5 µM
# [6] = tested on: FaDu; test: Induction of apoptosis in human FaDu cells assessed as chromatin condensation at 1 to 5 uM by DAPI staining based analysis; assay type: functional, cell-based; details: dose 1-5 µM
# [7] = tested on: FaDu; test: Induction of morphological changes in human FaDu cells assessed as appearance of detached cells at 1 uM incubated for 48 hrs by bright field microscope based analysis; assay type: functional, cell-based
# [8] = tested on: FaDu; test: Induction of apoptosis in human FaDu cells assessed as appearance of deformed cell membrane at 1 to 5 uM by DAPI staining based analysis; assay type: functional; details: dose 1-5 µM
# [9] = tested on: FaDu; test: Upregulation of LC3A/B level in human FaDu cells measured after 48 hrs by Western blot analysis; assay type: functional, cell-based; details: dose 1-5 µM
# [10] = tested on: FaDu; test: Induction of apoptosis in human FaDu cells assessed as nuclear fragmentation at 1 to 5 uM by DAPI staining based analysis; assay type: functional, cell-based; details: dose 1-5 µM
# [11] = tested on: FaDu; test: Inhibition of colony formation in human FaDu cells assessed as reduction in colony formation at 1 to 5 uM incubated for 48 hrs crystal violet staining based analysis (reference value: 62.58%); assay type: functional; details: dose 1-5 µM
# [12] = tested on: MCF7; test: Antiproliferative activity against human MCF7 cells assessed as inhibition of cell growth at 10 uM measured after 48 to 72 hrs by MTT assay relative to control; assay type: functional; details: time 48-72 hrs
# [13] = tested on: FaDu; test: Induction of morphological changes in human FaDu cells assessed as appearance of rounded cells at 1 uM incubated for 48 hrs by bright field microscope based analysis; assay type: functional, cell-based
# [14] = tested on: FaDu; test: Induction of autophagy in human FaDu cells assessed as reduction in cell density at 1 to 5 uM measured after 48 hrs by acridine orange staining based fluorescence microscopy analysis; assay type: functional; details: dose 1-5 µM
# [15] = tested on: HEK293; test: Antiproliferative activity against HEK293 cells assessed as inhibition of cell growth at 10 to 25 uM measured after 48 to 72 hrs by MTT assay; assay type: toxicity, cell-based; details: human, hek293, 25 µM; dose lower 10 µM, time lower 48 hrs, dose upper 25 µM, time upper 72 hrs
smiles,measurement,setting,value
Brc1ccc(Cc2nc(N3CCN(c4ccncc4)CC3)c3c4c(sc3n2)CCCC4)cc1,inhibition at 10 µM,[1],6.27%
same,Activity,[2],Active
same,Activity,[3],20.2%
same,inhibition,[4],Active; Compound Showed Potent Inhibition Activity Than Camptothecin
same,Activity,[5],Dose-dependent-effect
same,Activity,[6],Active
same,Activity,[7],Active
same,Activity,[8],Active
same,Activity,[9],Dose-dependent-effect
same,Activity,[10],Active
same,inhibition (INH),[11],19.35%
same,inhibition at 10 µM,[12],15.1%
same,Activity,[13],Active
same,Activity,[14],Active
same,Activity,[15],Non-toxic
